The record followed here is patent US20250282749A1 (Tango Therapeutics, Inc., priority 2022, published 2025).

Common to all, as to format: cell-based
The subject of assay [1] is HAP1 MTAP-deleted cell line. Description: viability assay for the MTAP-deleted cell line. As to conditions: Homo sapiens.
In assay [2] the test system is PRMT5 (SDMA) in HAP1 MTAP-deleted cell line. Nature of the assay: SDMA in-cell western assay, HAP1 MTAP-deleted cell line. The note with it: for IC50 / IC90: Homo sapiens, SDMA in-cell western, HAP1 MTAP-deleted (MTAP-null) cell line; for Hap1 MTAP intact/deleted ratio: ratio of SDMA in-cell western IC50 in HAP1 MTAP-intact to IC50 in HAP1 MTAP-deleted cell line. From the text: (§1) HAP1 MTAP-intact is a cell line in which endogenous levels of MTAP are expressed, and HAP1 MTAP-deleted is an MTAP-null cell line.

Assay [3] deals with PRMT5 (SDMA) in HAP1 MTAP-intact cell line. Description: SDMA in-cell western assay, HAP1 MTAP-intact cell line. The note with it: Homo sapiens, HAP1 MTAP-intact cell line (endogenous MTAP), read-out: Hap 1 MTAP intact IC50.
From the text: as §1

Bounds are passed on as bounds.

Consider `C[C@@H]1CN(C(=O)C(=O)Nc2cnc(N)c3cn[nH]c23)[C@@H](c2ccc(F)cc2)CN1C` [Compound 135], for which the IC50 – broadly, the concentration at which inhibition is half-maximal – in assay [1] was 100 to 1000 nM. In addition, in assay [2], the half-maximal inhibitory concentration (IC50) is below 5 nM, the IC90 (commonly the concentration needed for an effect of 90%) lay in the range of 75 to 125 nM and the “Hap1 MTAP intact/deleted ratio” value is “A (an IC50 ratio greater than or equal to 30 fold)”. The IC50 in assay [3] is above 50 nM.
In the case of `Cc1cc(NC(=O)C(=O)N2C[C@@H](C)N(C(=O)C3(C(F)(F)F)CC3)C[C@@H]2c2cccc(C(F)(F)F)c2)cnc1N` [Compound 137, N-(6-amino-5-methylpyridin-3-yl)-2-((2S,5R)-5-methyl-4-(1-(trifluoromethyl)cyclopropanecarbonyl)-2-(3-(trifluoromethyl)phenyl)piperazin-1-yl)-2-oxoacetamide], the IC50 in assay [1] was below 100 nM. In assay [2], the IC50 lay in the range of 5 to 50 nM, the IC90 is above 125 nM and the “Hap1 MTAP intact/deleted ratio” value was “B (an IC50 ratio greater than or equal to 15 fold but lower than 30 fold)”. Moreover, the IC50 in assay [3] is above 50 nM.
For `Cc1cc(NC(=O)C(=O)N2C[C@@H](C)N(C(=O)C3(C(F)(F)F)CC3)C[C@@H]2c2ccsc2)cnc1N` [Compound 138, N-(6-amino-5-methyl-3-pyridyl)-2-[(2S,5R)-5-methyl-2-(3-thienyl)-4-[1-(trifluoromethyl)cyclopropanecarbonyl]piperazin-1-yl]-2-oxo-acetamide] the same measures were below 100 nM, 5 to 50 nM, above 125 nM, “A (an IC50 ratio greater than or equal to 30 fold)” and above 50 nM.
`CCc1cc(NC(=O)C(=O)N2C[C@@H](C)N(C(=O)C3(C(F)(F)F)CC3)C[C@@H]2c2ccc(F)c(Cl)c2)cnc1N` [Compound 139, N-(6-amino-5-ethylpyridin-3-yl)-2-((2S,5R)-2-(3-chloro-4-fluorophenyl)-5-methyl-4-(1-(trifluoromethyl)cyclopropanecarbonyl)piperazin-1-yl)-2-oxoacetamide] displayed an IC50 in assay [1] below 100 nM. For the same compound, in assay [2], the half-maximal inhibitory concentration (IC50) was below 5 nM, the IC90 was below 75 nM and the “Hap1 MTAP intact/deleted ratio” value is reported as “B (an IC50 ratio greater than or equal to 15 fold but lower than 30 fold)”. For the same compound, the concentration for half-maximal inhibition (IC50) in assay [3] was in the range of 5 to 50 nM.
With `CCc1cc(NC(=O)C(=O)N2C[C@@H](C)N(C(=O)C(C)(C)C)C[C@@H]2c2ccccc2)cnc1N` [Compound 140, N-(6-amino-5-ethylpyridin-3-yl)-2-((2S,5R)-5-methyl-2-phenyl-4-pivaloylpiperazin-1-yl)-2-oxoacetamide], the IC50 in assay [1] is below 100 nM. In assay [2], the IC50 is below 5 nM, the IC90 was below 75 nM and the “Hap1 MTAP intact/deleted ratio” value is “C (an IC50 ratio of less than 15 fold)”. The half-inhibitory concentration (IC50) in assay [3] fell in the range of 5 to 50 nM.
Take `C[C@@H]1CN(C(=O)C(=O)Nc2cncc3cn[nH]c23)[C@@H](c2ccc(N3CCN(C)CC3)cc2)CN1C(=O)C(C)(C)C` [Compound 142, 2-((2S,5R)-5-methyl-2-(4-(4-methylpiperazin-1-yl)phenyl)-4-pivaloylpiperazin-1-yl)-2-oxo-N-(1H-pyrazolo[4,3-c]pyridin-7-yl)acetamide]: the IC50 was below 100 nM in assay [1], 5 to 50 nM in assay [2] and above 50 nM in assay [3]. This compound yielded an IC90 in assay [2] below 75 nM. The “Hap1 MTAP intact/deleted ratio” value in assay [2] is “C (an IC50 ratio of less than 15 fold)”.
For `Cc1cc(NC(=O)C(=O)N2C[C@@H](C)N(C(=O)C3(C)CC3)C[C@@H]2c2ccccc2)cnc1N` [Compound 143, N-(6-amino-5-methylpyridin-3-yl)-2-((2S,5R)-5-methyl-4-(1-methylcyclopropanecarbonyl)-2-phenylpiperazin-1-yl)-2-oxoacetamide] the same measures were below 100 nM, 5 to 50 nM, above 50 nM, above 125 nM and “C (an IC50 ratio of less than 15 fold)”.
